From ChEMBL document CHEMBL3885861, “Open TG-GATES”

Organism: Rattus norvegicus
Experiment: Open TG-GATES - Regimen: Daily Repeat
Type: toxicity, organism-based, Sprague-Dawley
Design: regimen Daily Repeat, gender Male, age 6 weeks
Conditions: in vivo, po, 50 mg/kg, route gavage, dose level High; for APTT / Bas / Eos / Fbg / Hb / Ht / Lym / MCH / MCHC / MCV / Mono / Neu / PT / Plat / RBC / Ret / WBC: tissue Blood; for KIDNEY_L / KIDNEY_R / KIDNEY_TOTAL: tissue Kidney; for LIVER: tissue Liver; for A/G / ALP / ALT / AST / BUN / CRE / Ca / Cl / DBIL / GLC / IP / K / LDH / Na / PL / RALB / TBIL / TC / TG / TP / gamma-GTP: tissue Plasma

## CC1=C(CC(=O)O)c2cc(F)ccc2/C1=C\c1ccc([S+](C)[O-])cc1 (configuration not stated)
72 h, time 3 day
  TERMINAL_BW: 223.6 g
  APTT: 18.5 s
  Bas: 0.2%
  Eos: 1.2%
  Fbg: 396.2 mg/dL
  Hb: 13.9 g/dL
  Ht: 41.6%
  Lym: 71.2%
  MCH: 20.7 pg
  MCHC: 33.3%
  MCV: 62.3 fL
  Mono: 3.4%
  Neu: 24%
  PT: 13.3 s
  Plat: 112.6 x10_4/uL
  RBC: 668 x10_4/ul
  Ret: 6%
  WBC: 137.2 x10_2/uL
  KIDNEY_L: 1 g
  KIDNEY_R: 1 g
  KIDNEY_TOTAL: 2 g
  LIVER: 11 g
  A/G: 0.9
  ALP: 1504.6 IU/L
  ALT: 38.2 IU/L
  AST: 63 IU/L
  BUN: 15.6 mg/dL
  CRE: 0.2 mg/dL
  Ca: 11 mg/dL
  Cl: 106.8 meq/L
  DBIL: 0.008 mg/dL
  GLC: 178.4 mg/dL
  IP: 6.5 mg/dL
  K: 4.2 meq/L
  LDH: 96.4 IU/L
  Na: 141.8 meq/L
  PL: 164.4 mg/dL
  RALB: 2.6 g/dL
  TBIL: 0.016 mg/dL
  TC: 91.2 mg/dL
  TG: 129.8 mg/dL
  TP: 5.4 g/dL
  gamma-GTP: 1.2 IU/L
[…], time 7 day
  TERMINAL_BW: 211.2 g
  APTT: 16.7 s
  Bas: 0.6%
  Eos: 1.2%
  Fbg: 522.6 mg/dL
  Hb: 11.5 g/dL
  Ht: 35.1%
  Lym: 55%
  MCH: 20.8 pg
  MCHC: 32.8%
  MCV: 63.4 fL
  Mono: 3.8%
  Neu: 38.8%
  PT: 13 s
  Plat: 252.7 x10_4/uL
  RBC: 553.6 x10_4/ul
  Ret: 11.8%
  WBC: 207.1 x10_2/uL
  KIDNEY_L: 1 g
  KIDNEY_R: 1 g
  KIDNEY_TOTAL: 2 g
  LIVER: 10.6 g
  A/G: 0.9
  ALP: 1360.6 IU/L
  ALT: 24.4 IU/L
  AST: 64 IU/L
  BUN: 39.8 mg/dL
  CRE: 0.3 mg/dL
  Ca: 10.6 mg/dL
  Cl: 104 meq/L
  DBIL: 0.032 mg/dL
  GLC: 154.2 mg/dL
  IP: 7.5 mg/dL
  K: 4.3 meq/L
  LDH: 96.8 IU/L
  Na: 141 meq/L
  PL: 157.6 mg/dL
  RALB: 2.4 g/dL
  TBIL: 0.066 mg/dL
  TC: 78.8 mg/dL
  TG: 104.2 mg/dL
  TP: 5.1 g/dL
  gamma-GTP: 5 IU/L
[…], time 14 day
  TERMINAL_BW: 263.8 g
  APTT: 25.1 s
  Bas: 0%
  Eos: 1.7%
  Fbg: 447 mg/dL
  Hb: 10.8 g/dL
  Ht: 33.6%
  Lym: 56%
  MCH: 20.6 pg
  MCHC: 31.6%
  MCV: 65.2 fL
  Mono: 4%
  Neu: 37%
  PT: 13.3 s
  Plat: 243.4 x10_4/uL
  RBC: 517.7 x10_4/ul
  Ret: 16.3%
  WBC: 216.8 x10_2/uL
  KIDNEY_L: 1.1 g
  KIDNEY_R: 1.1 g
  KIDNEY_TOTAL: 2.2 g
  LIVER: 13.4 g
  A/G: 0.9
  ALP: 806 IU/L
  ALT: 28.7 IU/L
  AST: 49.3 IU/L
  BUN: 18.3 mg/dL
  CRE: 0.3 mg/dL
  Ca: 10.5 mg/dL
  Cl: 106.3 meq/L
  DBIL: 0.0133 mg/dL
  GLC: 156.3 mg/dL
  IP: 5.3 mg/dL
  K: 4.5 meq/L
  LDH: 74 IU/L
  Na: 141.7 meq/L
  PL: 203 mg/dL
  RALB: 2.5 g/dL
  TBIL: 0.03 mg/dL
  TC: 96.7 mg/dL
  TG: 326.7 mg/dL
  TP: 5.4 g/dL
  gamma-GTP: 1.7 IU/L
[…], time 28 day
  TERMINAL_BW: 295.9 g
  APTT: 18.9 s
  Bas: 0%
  Eos: 1.7%
  Fbg: 577 mg/dL
  Hb: 10.2 g/dL
  Ht: 34.4%
  Lym: 51.7%
  MCH: 18.1 pg
  MCHC: 29.3%
  MCV: 61.7 fL
  Mono: 4.7%
  Neu: 41%
  PT: 11.9 s
  Plat: 221.3 x10_4/uL
  RBC: 561.3 x10_4/ul
  Ret: 16.6%
  WBC: 217.4 x10_2/uL
  KIDNEY_L: 1.3 g
  KIDNEY_R: 1.2 g
  KIDNEY_TOTAL: 2.5 g
  LIVER: 15.2 g
  A/G: 0.8
  ALP: 657 IU/L
  ALT: 23.3 IU/L
  AST: 47.3 IU/L
  BUN: 18.3 mg/dL
  CRE: 0.3 mg/dL
  Ca: 10 mg/dL
  Cl: 103 meq/L
  DBIL: 0.0067 mg/dL
  GLC: 149.3 mg/dL
  IP: 7 mg/dL
  K: 3.8 meq/L
  LDH: 92 IU/L
  Na: 141.7 meq/L
  PL: 181.7 mg/dL
  RALB: 2.3 g/dL
  TBIL: 0.06 mg/dL
  TC: 88.7 mg/dL
  TG: 261.7 mg/dL
  TP: 5.1 g/dL
  gamma-GTP: 1.7 IU/L
